From patent US20260250320A1, “LIPIDATED PEPTIDE INHIBITORS OF INTERLEUKIN-23 RECEPTOR” (Janssen Pharmaceutica NV, priority 2023, published 2026)
*1 amine or outer side, *2 acyl side, *3 side chain or, on linkers, in order; H or OH if unused. Where a SMILES comes first, the peptide text is derived from it. Bridges are numbered along the chain shown (N, C = ends). Side-chain parts run from the residue outwards. [ ]: non-standard residue; d: D form. The star is where a group is joined. Me3N+CH2CH2(OCH2CH2)4CO = C[N+](C)(C)CCOCCOCCOCCOCCC(=O)*; PEG12 = NCCOCCOCCOCCOCCOCCOCCOCCOCCOCCOCCOCCOCCC(=O)O; NH(CH2CH2O)2CH2CH2NMe3+ = C[N+](C)(C)CCOCCOCCN*; Trp(7-Me) = Cc1cccc2c(C[C@H](N)C(=O)O)c[nH]c12; C18 diacid = O=C(O)CCCCCCCCCCCCCCCCC(=O)*; X6 = CN(CC[C@H](N[*:1])C(=O)[*:2])[*:3]; γGlu = O=C(O)[C@H](CCC(=O)[*:2])N[*:1]; 2Nal = N[C@@H](Cc1ccc2ccccc2c1)C(=O)O; AEF = NCCOc1ccc(C[C@H](N)C(=O)O)cc1; X2 = C[N+](C)(C)C[C@@H](CC(=O)O)N*; 3Pal = N[C@@H](Cc1cccnc1)C(=O)O; NMeK = CN[C@@H](CCCCN)C(=O)O; Pen = CC(C)(S)[C@H](N)C(=O)O; Suc = O=C(CCC(=O)[*:2])[*:1]; Thp = NC1(C(=O)O)CCOCC1; AEEA = NCCOCCOCC(=O)O; Sar = CNCC(=O)O

The molecules below were run on IL-23-stimulated phosphorylated STAT3 in peripheral blood mononuclear cells (PBMCs) (assay: PBMC pSTAT3 Assay). Conditions: PBMCs from healthy donors; 30 min preincubation with peptide; IL-23 5 ng/mL for 30 min; phospho-STAT3 by MSD.
Assay type: cell-based
Description: Cryopreserved peripheral blood mononuclear cells (PBMCs) from healthy donors were thawed and washed twice in ImmunoCult-XF T cell expansion medium (XF-TCEM) supplemented with CTL anti-aggregate wash. The cells were counted, resuspended at 2-6×10^5 cells per mL XF-TCEM supplemented with penicillin/streptomycin and 100 ng/mL […] (BioLegend, 579404), and cultured in tissue culture flasks coated with anti-CD3 (eBioscience, 16-0037-85 or BD Pharmingen, 555329) at 37° C. in 5% CO2. On day 4 of culture, PBMCs were collected, washed twice in RPMI-1640 supplemented with 0.1% BSA (RPMI-BSA), and incubated in RPMI-BSA in upright tissue culture flasks for ~4 hours at 37° C. in 5% CO2. Following this 'starvation,' a total of 6×10^4 cells in 30 μL RPMI-BSA was transferred into each well of a 384-well plate pre-spotted with peptide or DMSO. The cells were incubated for 30 minutes prior to the addition of […] at a final concentration of 5 ng/mL. The cells were stimulated with cytokine for 30 minutes at 37° C. in 5% CO2, transferred onto ice for 10 minutes, and lysed. Cell lysates were stored at -80° C. until phosphorylated STAT3 was measured using the phospho-STAT panel kit (Meso Scale Discovery, […]). Results are provided below. • A: IC50<0.5 nM; • B: 0.5 nM≤IC50<5 nM; • C: 5 nM≤IC50; • ND: Not determined

| Structure (SMILES) | IC50 [nM] |
| --- | --- |
| CC(=O)NCCCC[C@@H]1NC(=O)[C@H](Cc2c[nH]c3c(C)cccc23)NC(=O)[C@H]([C@@H](C)O)NC(=O)[C@H](CCCCNC(=O)COCCOCCNC(=O)COCCOCCNC(=O)CC[C@H](NC(=O)CCCCCCCCCCCCCCCCC(=O)O)C(=O)O)NC(=O)[C@@H](NC(C)=O)C(C)(C)SSC(C)(C)[C@@H](C(=O)N[C@@H](Cc2ccc(OCCN)cc2)C(=O)N[C@@H](Cc2ccc3ccccc3c2)C(=O)NC2(C(=O)N[C@@H](CCCCNC(=O)CCC(=O)N[C@H](CC(=O)O)C[N+](C)(C)C)C(=O)N[C@@H](CC(N)=O)C(=O)N[C@@H](Cc3cccnc3)C(=O)N(C)CC(N)=O)CCOCC2)NC1=O [compound 14, MeCO-Pen(3)-K(PEG2PEG2gEC18OH)-T-7MeW-K(Ac)-Pen(3)-AEF-2Nal-THP-K(d)-N-3Pya-Sar-CONH2] (Ac-[Pen]K([AEEA-AEEA-γGlu-C18 diacid])T[Trp(7-Me)]K(Ac)[Pen][AEF][2Nal][Thp]K([Suc-X2])N[3Pal][Sar]-NH2; disulfide 1-6) | < 0.5 |
| CC(=O)NCCCC[C@@H]1NC(=O)[C@H](Cc2c[nH]c3c(C)cccc23)NC(=O)[C@H]([C@@H](C)O)NC(=O)[C@H](CC(N)=O)NC(=O)[C@@H](NC(C)=O)C(C)(C)SSC(C)(C)[C@@H](C(=O)N[C@@H](Cc2ccc(OCCCCC[N+](C)(C)C)cc2)C(=O)N[C@@H](Cc2ccc3ccccc3c2)C(=O)NC2(C(=O)N[C@@H](CCCCNC(=O)COCCOCCNC(=O)COCCOCCNC(=O)CC[C@H](NC(=O)CCCCCCCCCCCCCCCCC(=O)O)C(=O)O)C(=O)N[C@@H](CC(N)=O)C(=O)N[C@@H](Cc3ccccn3)C(=O)N(C)CC(N)=O)CCOCC2)NC1=O [compound 85, MeCO-Pen(3)-N-T-7MeW-K(Ac)-Pen(3)-TMAPF-2Nal-THP-K(PEG2PEG2gEC18OH)-N-3Pya-Sar-CONH2] | < 0.5 |
| CC(=O)NCCCC[C@@H]1NC(=O)[C@H](Cc2c[nH]c3c(C)cccc23)NC(=O)[C@H]([C@@H](C)O)NC(=O)[C@H](CC(N)=O)NC(=O)[C@@H](NC(=O)[C@@H](CCCNC(=N)N)NC(C)=O)C(C)(C)SSC(C)(C)[C@@H](C(=O)N[C@@H](Cc2ccc(OCCNC(=O)CCC(=O)N[C@H](CC(=O)O)C[N+](C)(C)C)cc2)C(=O)N[C@@H](Cc2ccc3ccccc3c2)C(=O)NC2(C(=O)N[C@@H](CCC(=O)O)C(=O)N[C@@H](CC(N)=O)C(=O)N[C@@H](Cc3cccnc3)C(=O)N(C)[C@@H](CCCCNC(=O)COCCOCCNC(=O)COCCOCCNC(=O)CC[C@H](NC(=O)CCCCCCCCCCCCCCCCC(=O)O)C(=O)O)C(N)=O)CCOCC2)NC1=O [compound 16, MeCO-r-Pen(3)-N-T-7MeW-K(Ac)-Pen(3)-AEF(d)-2Nal-THP-E-N-3Pya-NMeK(PEG2PEG2gEC18OH)-CONH2] (Ac-[dR][Pen]NT[Trp(7-Me)]K(Ac)[Pen][AEF]([Suc-X2])[2Nal][Thp]EN[3Pal][NMeK]([AEEA-AEEA-γGlu-C18 diacid])-NH2; disulfide 2-7) | < 0.5 |
| CC(=O)NCCCC[C@@H]1NC(=O)[C@H](Cc2c[nH]c3c(C)cccc23)NC(=O)[C@H]([C@@H](C)O)NC(=O)[C@H](CC(N)=O)NC(=O)[C@@H](NC(=O)[C@@H](CCCNC(=N)N)NC(C)=O)C(C)(C)SSC(C)(C)[C@@H](C(=O)N[C@@H](Cc2ccc(OCCN)cc2)C(=O)N[C@@H](Cc2ccc3ccccc3c2)C(=O)NC2(C(=O)N[C@@H](CCC(=O)O)C(=O)N[C@@H](CC(N)=O)C(=O)N[C@@H](Cc3cccnc3)C(=O)N(C)CC(=O)N[C@@H](CCCCNC(=O)COCCOCCNC(=O)COCCOCCNC(=O)CC[C@H](NC(=O)CCCCCCCCCCCCCCCCC(=O)O)C(=O)O)C(=O)NCCOCCOCC[N+](C)(C)C)CCOCC2)NC1=O [compound 40, MeCO-r-Pen(3)-N-T-7MeW-K(Ac)-Pen(3)-AEF-2Nal-THP-E-N-3Pya-Sar-K(PEG2PEG2gEC18OH)-CONH(PEG3a)] (Ac-[dR][Pen]NT[Trp(7-Me)]K(Ac)[Pen][AEF][2Nal][Thp]EN[3Pal][Sar]K([AEEA-AEEA-γGlu-C18 diacid])-{NH(CH2CH2O)2CH2CH2NMe3+}; disulfide 2-7) | 0.5 to 5 |
| Cc1cccc2c(C[C@@H]3NC(=O)[C@H]([C@@H](C)O)NC(=O)[C@H](CC(=O)N(C)C)NC(=O)[C@@H](NC(=O)CCOCCOCCOCCOCC[N+](C)(C)C)C(C)(C)SSC(C)(C)[C@@H](C(=O)N[C@@H](Cc4ccc(OCCN)cc4)C(=O)N[C@@H](Cc4ccc5ccccc5c4)C(=O)NC4(C(=O)N[C@@H](CCC(=O)O)C(=O)N[C@@H](CC(N)=O)C(=O)N[C@@H](Cc5cccnc5)C(=O)N(C)[C@@H](CCCCNC(=O)CCOCCOCCOCCOCCOCCOCCOCCOCCOCCOCCOCCOCCNC(=O)CC[C@H](NC(=O)CCCCCCCCCCCCCCCCC(=O)O)C(=O)O)C(N)=O)CCOCC4)NC(=O)[C@H](CCN(C)C(=O)CCOCCOCCOCCOCC[N+](C)(C)C)NC3=O)c[nH]c12 [compound 111, cPEG5aCO-Pen(3)-N(N(Me)2)-T-7MeW-Dab(NMecPEG5a)-Pen(3)-AEF-2Nal-THP-E-N-3Pya-NMeK(PEG12gEC18OH)-CONH2] ({Me3N+CH2CH2(OCH2CH2)4CO}-[Pen]D(NMe2)T[Trp(7-Me)][X6](Me3N+CH2CH2(OCH2CH2)4CO)[Pen][AEF][2Nal][Thp]EN[3Pal][NMeK]([PEG12-γGlu-C18 diacid])-NH2; disulfide 1-6) | < 0.5 |
| CC(=O)NCCCC[C@@H]1NC(=O)[C@H](Cc2c[nH]c3c(C)cccc23)NC(=O)[C@H]([C@@H](C)O)NC(=O)[C@H](CC(N)=O)NC(=O)[C@@H](NC(C)=O)C(C)(C)SSC(C)(C)[C@@H](C(=O)N[C@@H](Cc2ccc(OCCCCC[N+](C)(C)C)cc2)C(=O)N[C@@H](Cc2ccc3ccccc3c2)C(=O)NC2(C(=O)N[C@@H](CCCCNC(=O)COCCOCCNC(=O)COCCOCCNC(=O)CC[C@H](NC(=O)CCCCCCCCCCCCCCCCC(=O)O)C(=O)O)C(=O)N[C@@H](N)C(=O)N[C@@H](Cc3ccccn3)C(=O)N(C)CC(N)=O)CCOCC2)NC1=O [compound 86, MeCO-Pen(3)-N-T-7MeW-K(NMecPEG3a)-Pen(3)-AEF-2Nal-THP-K(PEG2PEG2gEC18OH)-N-3Pya-Sar-CONH2] | < 0.5 |

Each molecule was assayed against T1, IL-23R (Homo sapiens, UniProt Q5VWK5) (assay: IL23R Reporter Assay). Conditions: HEK293 cells containing IL-23R, IL-12Rβ1 and STAT-inducible firefly luciferase reporter; 10 ng/mL IL-23 (EC90); 5 h.
T1 construct: HEK293 cells containing IL-23R, IL-12Rβ1 and a firefly luciferase reporter gene driven by a STAT-inducible promoter (Promega); host or cells: HEK293
T1 sequence (Q5VWK5 24-629): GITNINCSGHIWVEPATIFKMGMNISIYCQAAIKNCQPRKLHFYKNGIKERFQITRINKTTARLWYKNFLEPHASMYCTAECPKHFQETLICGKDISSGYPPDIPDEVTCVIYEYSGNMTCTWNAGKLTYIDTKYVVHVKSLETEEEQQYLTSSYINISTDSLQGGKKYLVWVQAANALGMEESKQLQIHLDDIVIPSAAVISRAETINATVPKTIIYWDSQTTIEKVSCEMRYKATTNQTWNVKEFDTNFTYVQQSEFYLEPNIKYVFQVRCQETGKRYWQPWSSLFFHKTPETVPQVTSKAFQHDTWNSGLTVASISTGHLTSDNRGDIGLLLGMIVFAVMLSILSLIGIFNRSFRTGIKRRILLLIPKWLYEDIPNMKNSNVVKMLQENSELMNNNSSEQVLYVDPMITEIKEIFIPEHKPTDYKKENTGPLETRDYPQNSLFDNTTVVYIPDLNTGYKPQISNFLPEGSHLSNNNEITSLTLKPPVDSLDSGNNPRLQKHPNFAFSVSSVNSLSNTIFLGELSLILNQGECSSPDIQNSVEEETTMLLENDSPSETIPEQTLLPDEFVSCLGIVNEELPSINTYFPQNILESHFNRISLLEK
Assay type: cell-based
Description: Compounds were serially diluted in 100% (v/v) DMSO) and plated using an Echo acoustic dispenser (Labcyte) into 1536-well non-treated black assay plates (Corning #9146). 3 μL of HEK293 cells containing IL-23R, IL-12Rβ1 and a firefly luciferase reporter gene driven by a STAT-inducible promoter (Promega) were added to the plates (4000 cells/well), followed by 3 μL of 10 ng/mL IL-23 (equivalent to EC90 concentration). After 5 h at 37° C., 5% CO2, 95% relative humidity, cells were placed at 20° C. and treated with BioGlo reagent (Promega) according to the Manufacturer's instructions. Luminescence was measured on a Pherastar FSX (BMG LabTech). Data were normalized to IL-23 treatment (0% inhibition) and 30 μM of control inhibitor (100% inhibition), and IC50 values were determined using a 4-parameter Hill equation.

| Structure (SMILES) | IC50 [nM] |
| --- | --- |
| CC(=O)NCCCC[C@@H]1NC(=O)[C@H](Cc2c[nH]c3c(C)cccc23)NC(=O)[C@H]([C@@H](C)O)NC(=O)[C@H](CC(N)=O)NC(=O)[C@@H](NC(C)=O)C(C)(C)SSC(C)(C)[C@@H](C(=O)N[C@@H](Cc2ccc(OCCN)cc2)C(=O)N[C@@H](Cc2ccc3ccccc3c2)C(=O)NC2(C(=O)N[C@@H](CCC(=O)O)C(=O)N[C@@H](CC(N)=O)C(=O)N[C@@H](Cc3cccnc3)C(=O)N(C)CC(=O)NCCOCCOCCOCCOCCOCCOCCOCCOCCOCCOCCOCCOCCNC(=O)CC[C@H](NC(=O)CCCCCCCCCCCCCCCCC(=O)O)C(=O)O)CCOCC2)NC1=O [compound 135, MeCO-Pen(3)-N-T-7MeW-K(Ac)-Pen(3)-AEF-2Nal-THP-E-N-3Pya-Sar-CO(PEG12gEC18OH)] | 50 to 500 |
| CC(=O)NCCCC[C@@H]1NC(=O)[C@H](Cc2c[nH]c3c(C)cccc23)NC(=O)[C@H]([C@@H](C)O)NC(=O)[C@H](CC(N)=O)NC(=O)[C@@H](NC(C)=O)C(C)(C)SSC(C)(C)[C@@H](C(=O)N[C@@H](Cc2ccc(OCCN)cc2)C(=O)N[C@@H](Cc2ccc3ccccc3c2)C(=O)NC2(C(=O)N[C@@H](CCC(=O)O)C(=O)N[C@@H](CC(N)=O)C(=O)N[C@@H](Cc3cccnc3)C(=O)N(C)CC(=O)N[C@@H](CCCCNC(=O)COCCOCCNC(=O)COCCOCCNC(=O)CC[C@H](NC(=O)CCCCCCCCCCCCCCCCCCC(=O)O)C(=O)O)C(=O)NCCOCCOCC[N+](C)(C)C)CCOCC2)NC1=O [compound 93, MeCO-Pen(3)-N-T-7MeW-K(Ac)-Pen(3)-AEF-2Nal-THP-K(Ac)-N-3Pya-Sar-K(PEG2PEG2gEC20OH)-CONH(PEG3a)] | 50 to 500 |
